Results taken from PMC11997890, “In Vivo and In Vitro Pharmacokinetic Studies of a Dual Topoisomerase I/II Inhibitor” (ACS Pharmacology & Translational Science, 2025).

Tests used:
CYP2D6 = molecular target: T1, CYP2D6 (Homo sapiens, UniProt P10635); assay: Conversion of P8-D6 by recombinant CYP2D6; type: in vitro ADME
T1 construct: host or cells: human liver microsomes (one value) / recombinant CYP enzyme (other value)
Method: (§1) P8-D6 N-oxide was the most common metabolite for all incubations with subcellular fractions from the homogenized tissue. According to the detected MS-MS fragments (supplied as Supporting Information Chapter 2), it resulted from N-oxygenation of the nitrogen at the side chain since the unmodified fragment of P8-DO (m/z = 414.1) was detected. Furthermore, the detected fragment at m/z = 440.1 is most likely a carbocation at the remaining ethyl chain after splitting off the dimethylamine N-oxide further strengthening the theory of selectively forming this specific N-oxide. In addition, no relevant chemical shifts in the aromatic range of the ^1H NMR compared to P8-D6 and mono were observed (supplied as Supporting Information Chapter 2). Thus, no chemical modifications can have occurred on the aromatic rings, and all changes must therefore affect the side chain. […] To determine which enzymes were responsible for the conversion, seven recombinant CYP 450 isoenzymes recommended by the FDA’s “Guidance for Industry” and human FMO3 were used.
Among the recombinant enzymes, P8-D6 is mostly metabolized to P8-D6 mono by CYP3A4 (0.34%, significant compared to any other enzyme, p < 0.0001) and 2D6 (0.17%, significant compared to 2C8, 1A2, 2C19, and 2C9, p < 0.005) (Figure E). […]

OvCar8 cells [1] = assay: 2D monolayer apoptosis (caspase activity) assay (ApoLive-Glo); type: cell-based, human; conditions: 48 h
Method: (§2) The efficacy of metabolites can have a significant impact on the efficacy of the drug. […] The therapeutic effect of P8-D6 mono and P8-D6 N-oxide was investigated in vitro in human ovarian cancer 2D monolayers and 3D spheroids (Figures and ). 48 h of treatment of the ovarian cancer cell lines (OvCar8, A2780, Igrov-1) with P8-D6 mono and P8-D6 N-oxide was compared to P8-D6 and cisplatin (study preparation scheme supplied as Figure S5). Both metabolites decreased viability in ovarian cancer cells in a 2D monolayer (Figure A, supplied as Figure S3 A,C).
The human ovarian cancer cell lines OvCar8, Igrov-1, and A2780, purchased from ATCC, were maintained in RPMI1640 medium, including L-glutamine supplemented with 10% fetal bovine serum and 60 IU/mL penicillin–streptomycin. Cells were grown at 37 °C and 5% CO2 in a humidified incubator and subcultivated at a confluency of 70–80%. […]
For the measurements of viability and apoptosis, cells of approximately 8000/well were seeded in a Corning No. 3903 plate and treated with the corresponding drugs for 48 h. […] Fluorescence and luminescence units were measured by using a microplate multimode reader (Spark, Tecan). Relative caspase activity was calculated as caspase activity divided by viability (normalized to control). […]

OvCar8 cells [2] = assay: 2D monolayer viability assay (ApoLive-Glo); type: cell-based; conditions: Homo sapiens, OVCAR-8; OvCar8 2D monolayer, 48 h
Method: as §2
The human ovarian cancer cell lines OvCar8, Igrov-1, and A2780, purchased from ATCC, were maintained in RPMI1640 medium, including L-glutamine supplemented with 10% fetal bovine serum and 60 IU/mL penicillin–streptomycin. Cells were grown at 37 °C and 5% CO2 in a humidified incubator and subcultivated at a confluency of 70–80%. Cell line authenticity was checked by STR profiling as described previously, and mycoplasma contamination was routinely investigated using MycoAlert (Lonza).
For the measurements of viability and apoptosis, cells of approximately 8000/well were seeded in a Corning No. 3903 plate and treated with the corresponding drugs for 48 h. After treatment, apoptosis and cell viability assays were performed using an ApoLive-Glo Multiplex Assay Kit (Promega #G6410) according to the manufacturer’s instructions. Fluorescence and luminescence units were measured by using a microplate multimode reader (Spark, Tecan). Relative caspase activity was calculated as caspase activity divided by viability (normalized to control). […] All experiments were performed in biological triplicates. PBS was used as the negative control, and cisplatin and P8-D6 were used as the positive controls.

OvCar8 spheroids [3] = assay: 3D spheroid cytotoxicity (CellTox Green); type: cell-based; conditions: Homo sapiens, OVCAR-8, 48 h, OvCar8 3D spheroids, read-out: IC50 cell toxicity (CellTox Green)
Method: (§3) Tumor complexity is represented more realistically in 3D spheroid models than in 2D monolayer models.
(§4) OvCar8 cells (8000/well) were seeded into an Ultra-Low-Attachment plate (Corning #4520) and grown for 96 h. Then, spheroids were treated with the drugs for 48 h. Cell cytotoxicity was assessed using the CellTox Green Cytotoxicity Assay (Promega #G8731) 48 h after treatment with NYONE ([…], 485Ex/520Em). Filters: BFEx/GreenEm (530/43 nm); BlueEx (475/28 nm)/GreenEm (530/43 nm). Viability and apoptosis were determined by RealTime-Glo (460Em) (Promega #G9711) and caspase-Glo 3/7 (565Em) (Promega #G8090) according to the manufacturer’s instructions using a microplate reader (Spark, Tecan). Relative caspase activity: caspase activity divided by the viability (normalized to control). For live-dead staining, cells were grown and treated as described above. Then, 80% of the medium was removed and replaced with propidium iodide (PI) (15 μM), calcein-AM (0.2 μM), and Hoechst 33342 (1.8 μM) in medium for 3 h and imaged by NYONE ([…]). Filters: BFEx/GreenEm(530/43 nm); Hoechst 33342: UVEx (377/50 nm)/BlueEm (452/45 nm); calcein-AM: BlueEx (475/28 nm)/GreenEm (530/43 nm); propidium iodide: LimeEx(562/40 nm)/RedEm(628/32 nm). All experiments were performed in biological triplicates. PBS was used as the negative control, and cisplatin and P8-D6 as the positive control.

OvCar8 spheroids [4] = assay: 3D spheroid viability (RealTime-Glo); type: cell-based, human; conditions: for IC50: Homo sapiens, OVCAR-8, OvCar8 3D spheroids, 48 h
Method: as §3, §4

[5] = system: NCI-60 human tumor cell lines; assay: NCI-60 DTP Human Tumor Cell Lines Screening; type: cell-based; conditions: for GI50: Homo sapiens, NCI-60 panel
CYP2C9 = molecular target: T2, CYP2C9 (Homo sapiens, UniProt P11712); assay: Conversion of P8-D6 by recombinant CYP2C9; type: in vitro ADME
T2 construct: host or cells: human liver microsomes (one value) / recombinant CYP enzyme (other value)
Method: as §1
The third and final in vitro metabolite, P8-DO, is a direct synthesis precursor of P8-D6 and results from oxidative O-desalkylation of the complete side chain (Figure ). […] The formation of P8-DO is mainly catalyzed by CYP2C9 (0.10%) and 2D6 (0.09%) (Figure E). […]

T1 sequence (P10635 whole entry): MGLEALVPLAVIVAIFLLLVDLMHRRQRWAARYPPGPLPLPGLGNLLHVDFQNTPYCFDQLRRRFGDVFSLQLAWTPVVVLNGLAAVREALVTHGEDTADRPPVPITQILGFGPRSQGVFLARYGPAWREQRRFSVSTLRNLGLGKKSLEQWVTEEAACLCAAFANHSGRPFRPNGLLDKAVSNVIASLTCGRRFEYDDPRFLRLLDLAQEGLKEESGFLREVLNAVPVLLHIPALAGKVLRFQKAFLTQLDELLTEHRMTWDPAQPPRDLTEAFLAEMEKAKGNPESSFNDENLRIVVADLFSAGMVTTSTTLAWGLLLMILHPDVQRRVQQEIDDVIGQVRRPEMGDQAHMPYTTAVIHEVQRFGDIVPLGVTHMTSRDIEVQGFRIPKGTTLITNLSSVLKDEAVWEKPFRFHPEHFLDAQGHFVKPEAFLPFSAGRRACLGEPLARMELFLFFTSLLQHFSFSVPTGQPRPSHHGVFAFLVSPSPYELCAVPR
T2 sequence (P11712 whole entry): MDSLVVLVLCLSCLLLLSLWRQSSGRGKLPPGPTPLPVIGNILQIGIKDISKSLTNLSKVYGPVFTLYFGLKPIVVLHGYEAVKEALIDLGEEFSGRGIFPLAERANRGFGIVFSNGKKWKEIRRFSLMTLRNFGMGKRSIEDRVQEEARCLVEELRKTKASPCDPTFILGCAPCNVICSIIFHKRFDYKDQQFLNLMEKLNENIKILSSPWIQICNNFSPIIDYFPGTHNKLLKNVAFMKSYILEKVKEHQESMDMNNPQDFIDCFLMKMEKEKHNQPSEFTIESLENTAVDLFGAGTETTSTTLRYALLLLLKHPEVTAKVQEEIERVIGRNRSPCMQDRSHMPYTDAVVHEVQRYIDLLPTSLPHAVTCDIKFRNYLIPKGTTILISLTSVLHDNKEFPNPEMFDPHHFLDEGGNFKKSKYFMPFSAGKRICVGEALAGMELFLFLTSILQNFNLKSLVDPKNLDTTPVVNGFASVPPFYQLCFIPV

Row | SMILES | formation of metabolite from P8-D6 (CYP2D6) | apoptosis induction (OvCar8 cells [1]) | IC50 (OvCar8 cells [2]) | IC50 (OvCar8 spheroids [3]) | IC50 (OvCar8 spheroids [4]) | GI50 [5] | apoptosis rate higher than cisplatin (OvCar8 cells [1]; 10 μM) | efficacy increased compared to cisplatin (OvCar8 spheroids [4]; 3D spheroids) | efficacy reduced compared to P8-D6 mono (OvCar8 spheroids [4]; 3D spheroids) | formation of metabolite from P8-D6 (CYP2C9) | efficacy against cancer ([5]; NCI 60 Cell Screening)
1 | CNCCOc1nc2c3cnccc3cc(-c3cc(OC)c(OC)c(OC)c3)c2c2ccncc12 [P8-D6 mono] | 0.17% | comparable to that of P8-D6 | 0.31 µM | 2.22 µM | 0.24 µM | 0.037 µM | – | – | – | – | –
2 | COc1cc(-c2cc3ccncc3c3nc(OCC[N+](C)(C)[O-])c4cnccc4c23)cc(OC)c1OC [P8-D6 N-oxide] | – | – | 1.98 µM | – | 0.72 µM | – | 3.5 fold | 18 fold | 3 fold | – | –
3 | COc1cc(-c2cc3ccncc3c3[nH]c(=O)c4cnccc4c23)cc(OC)c1OC [P8-DO] | 0.09% | – | – | – | – | – | – | – | – | 0.10% | ineffective against cancer
4 | COc1cc(-c2cc3ccncc3c3nc(OCCN(C)C)c4cnccc4c23)cc(OC)c1OC [P8-D6, 6-(N,N-dimethyl-2-aminoethoxy)-11-(3,4,5-trimethoxyphenyl)-pyrido[3,4-c][1,9]-phenanthroline] | – | – | 0.27 µM | 1.11 µM | – | 0.049 µM | – | – | – | – | –
